Laboratory results as given in patent US20050222134A1, “Crystalline forms of 5, 11-dihydro-11-ethyl-5-methyl-8-{2-{(1-oxido-4-quinolinyl)oxy}ethyl}-6H-dipyrido[3,2-b:2',3'-e] [1,4]diazepin-6-one” (Boehringer Ingelheim International GmbH, priority 2004, published 2005).

Legend:
[1] = Biological testing of plasma levels of crystalline forms; assay type: in vivo; settings: compared with other crystalline forms of the drug
Excerpt: (§1) We have further discovered that under proper conditions several anhydrous polymorphs of 5,11-dihydro-11-ethyl-5-methyl-8-{2-{(1-oxido-4-quinolinyl)oxy} ethyl}-6H-dipyrido[3,2-b:2′,3′-e][1,4]diazepin-6-one may be formed. […] Thus, the invention further includes anhydrous Form III of 5,11-dihydro-11-ethyl-5-methyl-8-{2-{(1-oxido-4-quinolinyl)oxy}ethyl}-6H-dipyrido[3,2-b:2′,3′-e][1,4]diazepin-6-one and methods for its manufacture.

[2] = Phase stability of crystalline forms at ambient / storage conditions; assay type: physicochemical
Excerpt: A first aspect of the present invention comprises the discovery of a dihydrate crystalline form of 5,11-dihydro-11-ethyl-5-methyl-8-{2-{(1-oxido-4-quinolinyl)oxy}ethyl}-6H-dipyrido[3,2-b:2′,3′-e][1,4]diazepin-6-one. […] The invention also comprises methods for making this dihydrate crystalline form.
as §1

[3] = Solubility experiments used to determine the phase diagram of the crystalline forms; assay type: physicochemical; settings: 25° C.; for water content of ethanol solution in contact with which the form is thermodynamically favored over the other forms: ethanol solutions saturated with the compound, compared with the dihydrate, anhydrous Form I and Form III
Protocol: Solubility experiments were used to determine the unique phase diagram shown in FIG. 5 for the various forms of 5,11-dihydro-11-ethyl-5-methyl-8-{2-{(1-oxido-4-quinolinyl)oxy}ethyl}-6H-dipyrido[3,2-b:2′,3′-e][1,4]diazepin-6-one. […] Additionally, anhydrous Form III is thermodynamically favored over the dihydrate and anhydrous Form I at 25° C. when in contact with ethanol solutions containing<˜2.7±0.5 wt % water.

CCN1c2ncc(CCOc3cc[n+]([O-])c4ccccc34)cc2C(=O)N(C)c2cccnc21 (hydrate or solvate) [dihydrate, 5,11-dihydro-11-ethyl-5-methyl-8-{2-{(1-oxido-4-quinolinyl)oxy}ethyl}-6H-dipyrido[3,2-b:2′,3′-e][1,4]diazepin-6-one dihydrate]
melting point: 199 °C

CCN1c2ncc(CCOc3cc[n+]([O-])c4ccccc34)cc2C(=O)N(C)c2cccnc21 [anhydrous Form III, 5,11-dihydro-11-ethyl-5-methyl-8-{2-{(1-oxido-4-quinolinyl)oxy}ethyl}-6H-dipyrido[3,2-b:2′,3′-e][1,4]diazepin-6-one Anhydrous Form III]
plasma levels [1]: higher plasma levels than are attainable using other crystalline forms | phase stability ([2]; some tested ambient conditions): demonstrated phase stability | thermodynamic preference between crystalline forms (phase diagram) [3]: thermodynamically preferred over anhydrous Form I | water content of ethanol solution in contact with which the form is thermodynamically favored over the other forms [3]: < 2.7±0.5 wt % water | melting point: 198.2 °C

CCN1c2ncc(CCOc3cc[n+]([O-])c4ccccc34)cc2C(=O)N(C)c2cccnc21 [dihydrate, 5,11-dihydro-11-ethyl-5-methyl-8-{2-{(1-oxido-4-quinolinyl)oxy}ethyl}-6H-dipyrido[3,2-b:2′,3′-e][1,4]diazepin-6-one dihydrate]
thermodynamic or kinetic preference on storage ([2]; temperatures and humidities most likely encountered on storage of drug substance or drug product, compared with the trihydrate): thermodynamically or kinetically favored | water content of ethanol solution in contact with which the form is thermodynamically favored over the other forms ([3]; dihydrate): > 2.7 wt % water
